The values below come from article PMC4530782 (Bioorganic & medicinal chemistry letters, 2011).

In data set [1] the test system is Stat3 phosphorylation in JJN3 cells. The data set is classed as cell-based, human. Conditions: 24 hrs.
Another data set can be described thus: Water solubility. The class given is physicochemical. Conditions: compared with 7 and 17e.
In data set [2] the test system is Stat3 phosphorylation in MDA-468 cells. The class given is cell-based, human. As to conditions: 24 hrs.
The test system of data set [3] is DU145 (prostate) cancer cells. Briefly: Whole cell MTS cytotoxicity assay, DU145. The data set is classed as cell-based. Conditions: Homo sapiens, DU-145, 72 h, read-out: EC50 DU145. Background: Tetrazolium assays rely on reduction of a dye to a coloured formazan, in cell work by metabolically active cells.
In data set [4] the test system is MDA-468 (breast) cancer cells. Briefly: Whole cell MTS cytotoxicity assay, MDA-468. The class given is cell-based. As to conditions: Homo sapiens, 72 h, read-out: EC50 MDA-468.
Another data set concerns the target Stat5. Conditions: read-out: Stat5 Ki, fluorescence polarization; earlier work on 7; cited from earlier work.
Another data set has as its system breast tumor xenografts. Conditions: cited from earlier work.
Data set [5] has as its system NIH3T3, TE-71 and HPDEC cells. As to conditions: cited from earlier work.
Another data set has as its target Stat1. As to conditions: read-out: Stat1 Ki, fluorescence polarization; earlier work on 7; cited from earlier work. (In general: Polarisation of emitted light reports the rotation of a fluorescent probe.)
Data set [6] relates to JJN3 (multiple myeloma) cancer cells. Nature of the data set: Whole cell MTS cytotoxicity assay, JJN3. The data set is classed as cell-based. As to conditions: Homo sapiens, JJN-3, 72 h, read-out: EC50 JJN3.

Molecules are shown by their SMILES.

For the compound `CN(CC(=O)N(Cc1ccc(C2CCCCC2)cc1)c1ccc(C(=O)O)c(O)c1)S(=O)(=O)c1c(F)c(F)c(F)c(F)c1F` [17o], the “levels of Stat3 downstream targets (cMYC, Bcl-xL, Survivin)” value in [1] (immunoblotting) and in data set [2] (immunoblotting) was “effectively reduced levels of Stat3 downstream targets” throughout. Moreover, in “Water solubility”, the “water solubility (in words)” value is “much improved water solubility over both 7 and 17e”.

`Cc1ccc(S(=O)(=O)N(C)CC(=O)N(Cc2ccc(C3CCCCC3)cc2)c2ccc(C(=O)O)c(O)c2)cc1` [compound 7]: the concentration giving a half-maximal response (EC50) – broadly, the concentration that produces a half-maximal response – in data set [3] turned out to be 37.2 ± 12.4 µM; in data set [4], 17 ± 4.4 µM; in data set [6] it was 93.3 ± 15.8 µM. Also, the “concentration at which Stat3 phosphorylation is inhibited” value in [1] (Western blot) and in [2] (Western blot) was “approximately 100 μM” throughout. Also, the Ki at Stat5 and on Stat1 was above 25 µM in each case. Besides, in the data set on breast tumor xenografts, the “in vivo effect on breast tumor xenografts” value was “suppression of breast tumor xenografts”. The “effects against 'healthy' cells lacking activated Stat3” value in data set [5] is “negligible effects”.
